From patent US20150045551A1, “FUSED AZOLE DERIVATIVE” (TAISHO PHARMACEUTICAL CO., LTD, priority 2012, published 2015)

How the values were obtained:
Human V1b receptor [1] = biological target: T1, Human V1b receptor (Homo sapiens, UniProt P47901); experiment: Binding test for V1b receptor ([3H]AVP displacement, crude membrane preparation); set-up: expressed in transfected cells; host or cells: 293FT cells (transient expression); details: [3H]AVP 0.4 to 1 nmol/L; membranes of 293FT cells transiently expressing human V1b receptor; room temperature, 60 minutes
T1 sequence (P47901 1-424): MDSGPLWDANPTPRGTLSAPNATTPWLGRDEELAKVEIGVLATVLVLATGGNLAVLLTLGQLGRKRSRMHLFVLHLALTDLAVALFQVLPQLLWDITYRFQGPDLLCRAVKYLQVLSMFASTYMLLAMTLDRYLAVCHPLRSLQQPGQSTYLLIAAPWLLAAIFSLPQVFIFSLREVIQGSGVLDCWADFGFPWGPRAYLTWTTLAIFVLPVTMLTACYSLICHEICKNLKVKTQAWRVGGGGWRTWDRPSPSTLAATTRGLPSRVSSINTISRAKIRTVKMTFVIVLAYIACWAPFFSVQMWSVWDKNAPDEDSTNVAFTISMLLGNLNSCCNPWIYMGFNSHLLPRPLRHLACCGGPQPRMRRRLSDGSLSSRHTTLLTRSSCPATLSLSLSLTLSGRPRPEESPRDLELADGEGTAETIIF
Procedure: Human V1b receptor was transiently expressed in 293FT cells, which were then recovered and homogenated in a 15 mmol/L tris-hydrochloric acid buffer (pH 7.4 and containing 2 mmol/L magnesium chloride, 0.3 mmol/L ethylenediaminetetracetic acid, and 1 mmol/L glycol ether diaminetetraacetic acid). The resulting homogenate was centrifuged at 50,000×g at 4 ° C. for 20 minutes. The precipitate was resuspended in a 75 mmol/L tris-hydrochloric acid buffer (pH 7.4 and containing 12.5 mmol/L magnesium chloride, 0.3 mmol/L ethylenediaminetetracetic acid, 1 mmol/L glycol ether diaminetetraacetic acid, and 250 mmol/L sucrose) to give a crude membrane preparation, which was stored at −80° C. until the binding test was initiated. In the binding test, the crude membrane preparation was diluted with a 50 mmol/L tris-hydrochloric acid buffer (pH 7.4 and containing 10 mmol/L magnesium chloride and 0.1% bovine serum albumin) and mixed with each test compound and [^3H]AVP (final concentration: 0.4 to 1 nmol/L), followed by incubation at room temperature for 60 minutes. The test compound was serially diluted with DMSO so that it would have final concentrations of 0.01 nmol/L to […] at the time of mixing. After the incubation, the mixture was suction filtered through a GF/C filter that was preliminarily impregnated with 0.3% polyethyleneimine. The GF/C filter was dried and after adding a scintillator, the residual radioactivity on the filter was measured using TopCount (PerkinElmer Inc.). The radioactivity in the presence of unlabeled AVP at 10 μmol/L was defined as 0%, and the radioactivity in the absence of unlabeled AVP was defined as 100%. A dose-response curve was plotted from radioactivities in the presence of a test compound at various concentrations, and the 50% inhibitory concentration (IC50 value) of the test compound was calculated.

Human V1b receptor [2] = biological target: T1, Human V1b receptor; experiment: Measurement of V1b receptor antagonistic activity (AVP-induced Fluo-4 fluorescence, FDSS); format: cell-based; set-up: expressed in transfected cells; details: CHO cells stably expressing human V1b receptor; AVP 2.5 nmol/L; 30 minutes preincubation with test compound
Procedure: CHO cells so modified as to express human V1b receptor in a stable manner were cultured in Ham's F-12 medium (containing 10% FBS and 0.5 mg/mL Geneticin). On the day before the test, seeding was conducted at a density of 20,000 cells/well in a 96-well poly-D-lysine coated black plate. On the day of the test, the culture medium was removed, and a loading solution (1×HBSS, 10 mmol/L HEPES, 0.1% bovine serum albumin, 1.25 mmol/L Probenecid, 0.02% Pluronic F-127, 1.5 μmol/L Fluo-4-AM, pH 7.4) was added to each well, followed by incubation in a CO2 incubator for an hour. After the incubation, the loading solution was removed. A test solution (1×HBSS, 10 mmol/L HEPES, 0.1% bovine serum albumin, 1.25 mmol/L Probenecid, pH 7.4) containing any one of test compounds was added to wells, followed by incubation in a CO2 incubator for 30 minutes. The test compound was serially diluted with DMSO so that it would have final concentrations of 0.1 nmol/L to 1 μmol/L at the time of assaying. After the incubation, fluorescence intensity levels were measured and AVP added by means of FDSS (Hamamatsu Photonics K.K.); AVP was added to give a final concentration of 2.5 nmol/L at the time of assaying. […] The fluorescence level in a well to which neither test compound nor AVP was added was defined as 0%, and the fluorescence level in a well to which only AVP was added and no test compound was added was defined as 100%. A dose-response curve was plotted from fluorescence levels after the addition of AVP in the presence of a test compound at various concentrations, and the 50% inhibitory concentration (IC50 value) of the compound was calculated.

CC(C)NC(=O)Cn1c(-c2ccc(F)c(Cl)c2)nc2cc(OCCCN3CCCCCC3)ccc21 [Example A-13, 2-{5-[3-(azepan-1-yl)propoxy]-2-(3-chloro-4-fluorophenyl)-1H-benzimidazol-1-yl}-N-isopropyl acetamide]
IC50 (Human V1b receptor [1]): 32.9 nM | IC50 (Human V1b receptor [2]): 62.4 nM

CC(C)NC(=O)Cn1c(-c2cccc(Cl)c2)cc2cc(OCCCN3CCCCC3)cnc21 [Example B-21, 2-{2-(3-chlorophenyl)-5-[3-(piperidin-1-yl)propoxy]-1H-pyrrolo[2,3-b]pyridin-1-yl}-N-isopropyl acetamide]
IC50 (Human V1b receptor [1]): 21.4 nM | IC50 (Human V1b receptor [2]): 50.8 nM

CC(C)NC(=O)Cn1c(-c2cccc(Cl)c2)cc2cc(OCCCN3CC4(COC4)C3)ccc21 [Example B-9, 2-{2-(3-chlorophenyl)-5-[3-(2-oxa-6-azaspiro[3.3]hept-6-yl)propoxy]-1H-indol-1-yl}-N-isopropyl acetamide]
IC50 (Human V1b receptor [1]): 5.3 nM | IC50 (Human V1b receptor [2]): 21.4 nM

COc1cc(-c2nc3cc(OCCCN4CCCCC4)ccc3n2CC(=O)NC(C)C)ccc1F [Example A-5, 2-{2-(4-fluoro-3-methoxyphenyl)-5-[3-(piperidin-1-yl)propoxy]-1H-benzimidazol-1-yl}-N-isopropyl acetamide]
IC50 (Human V1b receptor [1]): 43.3 nM | IC50 (Human V1b receptor [2]): 122 nM

CC(C)NC(=O)Cn1c(-c2ccc(F)c(Cl)c2)cc2cc(OC3CCN(C4CCCC4)CC3)ccc21 [Example B-17, 2-{2-(3-chloro-4-fluorophenyl)-5-[(1-cyclopentylpiperidin-4-yl)oxy]-1H-indol-1-yl}-N-isopropyl acetamide]
IC50 (Human V1b receptor [1]): 0.86 nM | IC50 (Human V1b receptor [2]): 6 nM

COc1cc(-c2nc3cc(-c4cc(Cl)cc(CN(C)C)c4)ccc3n2CC(=O)NC(C)C)ccc1F [Example A-9, 2-[5-{3-chloro-5-[(dimethylamino)methyl]phenyl}-2-(4-fluoro-3-methoxyphenyl)-1H-benzimidazol-1-yl]-N-isopropyl acetamide]
IC50 (Human V1b receptor [1]): 2.6 nM | IC50 (Human V1b receptor [2]): 101 nM

CC(C)NC(=O)Cn1c(-c2ccc(F)c(Cl)c2)cc2cc(OCCCN3CCOCC3)ccc21 [Example B-5, 2-{2-(3-chloro-4-fluorophenyl)-5-[3-(morpholin-4-yl)propoxy]-1H-indol-1-yl}-N-isopropyl acetamide]
IC50 (Human V1b receptor [1]): 8.9 nM | IC50 (Human V1b receptor [2]): 8 nM

CC(C)NC(=O)Cn1c(-c2ccc(F)c(Cl)c2)nc2cc(OCCCN3CCOCC3)ccc21 [Example A-14, 2-{2-(3-chloro-4-fluorophenyl)-5-[3-(morpholin-4-yl)propoxy]-1H-benzimidazol-1-yl}-N-isopropyl acetamide]
IC50 (Human V1b receptor [1]): 12.5 nM | IC50 (Human V1b receptor [2]): 53.5 nM

COc1cc(-c2nc3cc(OCCCN4CCOCC4)ccc3n2CC(=O)NC(C)C)ccc1F [Example A-6, 2-{2-(4-fluoro-3-methoxyphenyl)-5-[3-(morpholin-4-yl)propoxy]-1H-benzimidazol-1-yl}-N-isopropyl acetamide]
IC50 (Human V1b receptor [1]): 29.3 nM | IC50 (Human V1b receptor [2]): 25.9 nM

CC(C)NC(=O)Cn1c(-c2ccc(F)c(Cl)c2)nc2cc(OCCCN3CCCCC3)ccc21 [Example A-11, 2-{2-(3-chloro-4-fluorophenyl)-5-[3-(piperidin-1-yl)propoxy]-1H-benzimidazol-1-yl}-N-isopropyl acetamide]
IC50 (Human V1b receptor [2]): 88 nM

CC(C)NC(=O)Cn1c(-c2ccc(F)c(Cl)c2)cc2cc(OCCCN3CCCCC3)ccc21 [Example B-4, 2-{2-(3-chloro-4-fluorophenyl)-5-[3-(piperidin-1-yl)propoxy]-1H-indol-1-yl}-N-isopropyl acetamide]
IC50 (Human V1b receptor [1]): 4.9 nM | IC50 (Human V1b receptor [2]): 21.9 nM

CC(C)NC(=O)Cn1c(-c2cccc(Cl)c2)cc2cc(OCCCN3CCCCC3)ccc21 [Example B-1, 2-{2-(3-chlorophenyl)-5-[3-(piperidin-1-yl)propoxy]-1H-indol-1-yl}-N-isopropyl acetamide]
IC50 (Human V1b receptor [1]): 8.7 nM | IC50 (Human V1b receptor [2]): 97 nM

CC(C)NC(=O)Cn1c(-c2cccc(Cl)c2)nc2cc(OCCCN3CCCCC3)ccc21 [Example A-1, 2-{2-(3-chlorophenyl)-5-[3-(piperidin-1-yl)propoxy]-1H-benzimidazol-1-yl}-N-isopropyl acetamide]
IC50 (Human V1b receptor [1]): 14.4 nM | IC50 (Human V1b receptor [2]): 212 nM
